Source: ChEMBL document CHEMBL6127119 (J Med Chem, 2024)
In brackets after ≈: the same amount, converted by molar mass.

Columns and labels:
Type in all cases: functional
Conditions in all cases: time 16-24 hrs
Escherichia coli [1] = assay: Potency index, ratio of Vancomycin MIC to test compound MIC for Escherichia coli […] incubated for 16 to 24 hrs by CLSI based broth microdilution method
Acinetobacter baumannii [2] = assay: Potency index, ratio of Norvancomycin MIC to test compound MIC for Carbapenem-resistant Acinetobacter baumannii clinical isolate incubated for 16 to 24 hrs by CLSI based broth microdilution method
Enterococcus faecium [3] = assay: Potency index, ratio of Vancomycin MIC to test compound MIC for vancomycin-resistant Enterococcus faecium incubated for 16 to 24 hrs by CLSI based broth microdilution method
Staphylococcus aureus [4] = assay: Antibacterial activity against methicillin-susceptible Staphylococcus aureus incubated for 16 to 24 hrs by CLSI based broth microdilution method
Escherichia coli [5] = assay: Antibacterial activity against Escherichia coli AB1157 incubated for 16 to 24 hrs by CLSI based broth microdilution method
Staphylococcus aureus [6] = assay: Potency index, ratio of Vancomycin MIC to test compound MIC for vancomycin-intermediate Staphylococcus aureus incubated for 16 to 24 hrs by CLSI based broth microdilution method
Acinetobacter baumannii [7] = assay: Antibacterial activity against Carbapenem-resistant Acinetobacter baumannii clinical isolate incubated for 16 to 24 hrs by CLSI based broth microdilution method
Enterococcus faecium [8] = assay: Antibacterial activity against vancomycin-resistant Enterococcus faecium harboring VanB phenotype incubated for 16 to 24 hrs by CLSI based broth microdilution method
Escherichia coli [9] = assay: Potency index, ratio of Norvancomycin MIC to test compound MIC for Escherichia coli […] incubated for 16 to 24 hrs by CLSI based broth microdilution method
Staphylococcus aureus [10] = assay: Antibacterial activity against vancomycin-intermediate Staphylococcus aureus incubated for 16 to 24 hrs by CLSI based broth microdilution method
Acinetobacter baumannii [11] = assay: Potency index, ratio of Vancomycin MIC to test compound MIC for Carbapenem-resistant Acinetobacter baumannii clinical isolate incubated for 16 to 24 hrs by CLSI based broth microdilution method
Staphylococcus aureus [12] = assay: Potency index, ratio of Norvancomycin MIC to test compound MIC for vancomycin-intermediate Staphylococcus aureus incubated for 16 to 24 hrs by CLSI based broth microdilution method
Enterococcus faecium [13] = assay: Antibacterial activity against vancomycin-resistant Enterococcus faecium harboring VanM phenotype incubated for 16 to 24 hrs by CLSI based broth microdilution method
Enterococcus faecium [14] = assay: Antibacterial activity against vancomycin-resistant Enterococcus faecium harboring VanA phenotype incubated for 16 to 24 hrs by CLSI based broth microdilution method
Enterococcus faecium [15] = assay: Potency index, ratio of Norvancomycin MIC to test compound MIC for vancomycin-resistant Enterococcus faecium incubated for 16 to 24 hrs by CLSI based broth microdilution method
Klebsiella pneumoniae = assay: Antibacterial activity against Klebsiella pneumoniae clinical isolate incubated for 16 to 24 hrs by CLSI based broth microdilution method
Pseudomonas aeruginosa = assay: Antibacterial activity against Pseudomonas aeruginosa PAO1 incubated for 16 to 24 hrs by CLSI based broth microdilution method

Compound | Ratio (Escherichia coli [1]) | Ratio (Acinetobacter baumannii [2]) | Ratio (Enterococcus faecium [3]) | MIC (Staphylococcus aureus [4]) | MIC (Escherichia coli [5]) | Ratio (Staphylococcus aureus [6]) | MIC (Acinetobacter baumannii [7]) | MIC (Enterococcus faecium [8]) | Ratio (Escherichia coli [9]) | MIC (Staphylococcus aureus [10]) | Ratio (Acinetobacter baumannii [11]) | Ratio (Staphylococcus aureus [12]) | MIC (Enterococcus faecium [13]) | MIC (Enterococcus faecium [14]) | Ratio (Enterococcus faecium [15]) | MIC (Klebsiella pneumoniae) | MIC (Pseudomonas aeruginosa)
CN[C@H](CC(C)C)C(=O)N[C@H]1C(=O)N[C@@H](CC(N)=O)C(=O)N[C@H]2C(=O)N[C@H]3C(=O)N[C@H](C(=O)N[C@H](C(=O)NCCc4ccc(-c5ccc(CNC(=N)N)cc5)cc4)c4cc(O)cc(O)c4-c4cc3ccc4O)[C@H](O)c3ccc(c(Cl)c3)Oc3cc2cc(c3O[C@@H]2O[C@H](CO)[C@@H](O)[C@H](O)[C@H]2O[C@H]2C[C@](C)(N)[C@H](O)[C@H](C)O2)Oc2ccc(cc2Cl)[C@H]1O | 2 | 2 | 2 | 0.125 µg/mL (≈ 0.0735 µM) | 8 µg/mL (≈ 4.71 µM) | 2 | 64 µg/mL (≈ 37.7 µM) | 4 µg/mL (≈ 2.35 µM) | 2 | 0.5 µg/mL (≈ 0.294 µM) | 2 | 2 | 2 µg/mL (≈ 1.18 µM) | 2 µg/mL (≈ 1.18 µM) | 2 | > 128 µg/mL | –
CC(C)C[C@@H](N)C(=O)N[C@H]1C(=O)N[C@@H](CC(N)=O)C(=O)N[C@H]2C(=O)N[C@H]3C(=O)N[C@H](C(=O)N[C@H](C(=O)NCc4ccc(-c5ccc(CCNC(=N)N)cc5)cc4)c4cc(O)cc(O)c4-c4cc3ccc4O)[C@H](O)c3ccc(c(Cl)c3)Oc3cc2cc(c3O[C@@H]2O[C@H](CO)[C@@H](O)[C@H](O)[C@H]2O[C@H]2C[C@](C)(N)[C@H](O)[C@H](C)O2)Oc2ccc(cc2Cl)[C@H]1O | 2 | 2 | 2 | 0.125 µg/mL (≈ 0.0742 µM) | 8 µg/mL (≈ 4.75 µM) | 2 | 64 µg/mL (≈ 38 µM) | 4 µg/mL (≈ 2.37 µM) | 2 | 0.5 µg/mL (≈ 0.297 µM) | 2 | 2 | 2 µg/mL (≈ 1.19 µM) | 4 µg/mL (≈ 2.37 µM) | 2 | > 128 µg/mL | > 128 µg/mL
CN[C@H](CC(C)C)C(=O)N[C@H]1C(=O)N[C@@H](CC(N)=O)C(=O)N[C@H]2C(=O)N[C@H]3C(=O)N[C@H](C(=O)N[C@H](C(=O)NCc4ccc(-c5ccc(CNC(=N)N)cc5)cc4)c4cc(O)cc(O)c4-c4cc3ccc4O)[C@H](O)c3ccc(c(Cl)c3)Oc3cc2cc(c3O[C@@H]2O[C@H](CO)[C@@H](O)[C@H](O)[C@H]2O[C@H]2C[C@](C)(N)[C@H](O)[C@H](C)O2)Oc2ccc(cc2Cl)[C@H]1O | 2 | 2 | 2 | 0.125 µg/mL (≈ 0.0742 µM) | 8 µg/mL (≈ 4.75 µM) | 2 | 32 µg/mL (≈ 19 µM) | 1 µg/mL (≈ 0.593 µM) | 2 | 0.5 µg/mL (≈ 0.297 µM) | 2 | 2 | 2 µg/mL (≈ 1.19 µM) | 2 µg/mL (≈ 1.19 µM) | 2 | > 128 µg/mL | –
CN[C@H](CC(C)C)C(=O)N[C@H]1C(=O)N[C@@H](CC(N)=O)C(=O)N[C@H]2C(=O)N[C@H]3C(=O)N[C@H](C(=O)N[C@H](C(=O)NCc4ccc(-c5ccc(CCNC(=N)N)cc5)cc4)c4cc(O)cc(O)c4-c4cc3ccc4O)[C@H](O)c3ccc(c(Cl)c3)Oc3cc2cc(c3O[C@@H]2O[C@H](CO)[C@@H](O)[C@H](O)[C@H]2O[C@H]2C[C@](C)(N)[C@H](O)[C@H](C)O2)Oc2ccc(cc2Cl)[C@H]1O | 2 | 2 | 2 | 0.25 µg/mL (≈ 0.147 µM) | 8 µg/mL (≈ 4.71 µM) | 2 | 16 µg/mL (≈ 9.41 µM) | 1 µg/mL (≈ 0.588 µM) | 2 | 0.5 µg/mL (≈ 0.294 µM) | 2 | 2 | 2 µg/mL (≈ 1.18 µM) | 2 µg/mL (≈ 1.18 µM) | 2 | > 128 µg/mL | –
CC(C)C[C@@H](N)C(=O)N[C@H]1C(=O)N[C@@H](CC(N)=O)C(=O)N[C@H]2C(=O)N[C@H]3C(=O)N[C@H](C(=O)N[C@H](C(=O)NCc4ccc(-c5ccccc5CNC(=N)N)cc4)c4cc(O)cc(O)c4-c4cc3ccc4O)[C@H](O)c3ccc(c(Cl)c3)Oc3cc2cc(c3O[C@@H]2O[C@H](CO)[C@@H](O)[C@H](O)[C@H]2O[C@H]2C[C@](C)(N)[C@H](O)[C@H](C)O2)Oc2ccc(cc2Cl)[C@H]1O | 2 | 2 | 2 | ≤ 0.063 µg/mL | 8 µg/mL (≈ 4.79 µM) | 2 | 16 µg/mL (≈ 9.57 µM) | 2 µg/mL (≈ 1.2 µM) | 2 | 0.5 µg/mL (≈ 0.299 µM) | 2 | 2 | 2 µg/mL (≈ 1.2 µM) | 4 µg/mL (≈ 2.39 µM) | 2 | > 128 µg/mL | 32 µg/mL (≈ 19.1 µM)
CC(C)C[C@@H](N)C(=O)N[C@H]1C(=O)N[C@@H](CC(N)=O)C(=O)N[C@H]2C(=O)N[C@H]3C(=O)N[C@H](C(=O)N[C@H](C(=O)NCCc4ccc(-c5ccc(CNC(=N)N)cc5)cc4)c4cc(O)cc(O)c4-c4cc3ccc4O)[C@H](O)c3ccc(c(Cl)c3)Oc3cc2cc(c3O[C@@H]2O[C@H](CO)[C@@H](O)[C@H](O)[C@H]2O[C@H]2C[C@](C)(N)[C@H](O)[C@H](C)O2)Oc2ccc(cc2Cl)[C@H]1O | 2 | 2 | 2 | 0.125 µg/mL (≈ 0.0742 µM) | 8 µg/mL (≈ 4.75 µM) | 2 | 128 µg/mL (≈ 75.9 µM) | 4 µg/mL (≈ 2.37 µM) | 2 | 0.5 µg/mL (≈ 0.297 µM) | 2 | 2 | 4 µg/mL (≈ 2.37 µM) | 4 µg/mL (≈ 2.37 µM) | 2 | > 128 µg/mL | > 128 µg/mL
CC(C)C[C@@H](N)C(=O)N[C@H]1C(=O)N[C@@H](CC(N)=O)C(=O)N[C@H]2C(=O)N[C@H]3C(=O)N[C@H](C(=O)N[C@H](C(=O)NCc4ccc(-c5ccccc5CN)cc4)c4cc(O)cc(O)c4-c4cc3ccc4O)[C@H](O)c3ccc(c(Cl)c3)Oc3cc2cc(c3O[C@@H]2O[C@H](CO)[C@@H](O)[C@H](O)[C@H]2O[C@H]2C[C@](C)(N)[C@H](O)[C@H](C)O2)Oc2ccc(cc2Cl)[C@H]1O | – | – | – | 0.25 µg/mL (≈ 0.153 µM) | 8 µg/mL (≈ 4.91 µM) | – | 16 µg/mL (≈ 9.82 µM) | 4 µg/mL (≈ 2.45 µM) | – | 0.5 µg/mL (≈ 0.307 µM) | – | – | 4 µg/mL (≈ 2.45 µM) | 8 µg/mL (≈ 4.91 µM) | – | > 128 µg/mL | 32 µg/mL (≈ 19.6 µM)
CC(C)C[C@@H](N)C(=O)N[C@H]1C(=O)N[C@@H](CC(N)=O)C(=O)N[C@H]2C(=O)N[C@H]3C(=O)N[C@H](C(=O)N[C@H](C(=O)NCc4ccc(-c5cccc(CN)c5)cc4)c4cc(O)cc(O)c4-c4cc3ccc4O)[C@H](O)c3ccc(c(Cl)c3)Oc3cc2cc(c3O[C@@H]2O[C@H](CO)[C@@H](O)[C@H](O)[C@H]2O[C@H]2C[C@](C)(N)[C@H](O)[C@H](C)O2)Oc2ccc(cc2Cl)[C@H]1O | – | – | – | 0.125 µg/mL (≈ 0.0767 µM) | 16 µg/mL (≈ 9.82 µM) | – | > 128 µg/mL | 8 µg/mL (≈ 4.91 µM) | – | 0.5 µg/mL (≈ 0.307 µM) | – | – | 2 µg/mL (≈ 1.23 µM) | 8 µg/mL (≈ 4.91 µM) | – | > 128 µg/mL | 128 µg/mL (≈ 78.6 µM)
CC(C)C[C@@H](N)C(=O)N[C@H]1C(=O)N[C@@H](CC(N)=O)C(=O)N[C@H]2C(=O)N[C@H]3C(=O)N[C@H](C(=O)N[C@H](C(=O)NCc4ccc(-c5cccc(CNC(=N)N)c5)cc4)c4cc(O)cc(O)c4-c4cc3ccc4O)[C@H](O)c3ccc(c(Cl)c3)Oc3cc2cc(c3O[C@@H]2O[C@H](CO)[C@@H](O)[C@H](O)[C@H]2O[C@H]2C[C@](C)(N)[C@H](O)[C@H](C)O2)Oc2ccc(cc2Cl)[C@H]1O | 2 | 2 | 2 | ≤ 0.063 µg/mL | 16 µg/mL (≈ 9.57 µM) | 2 | 64 µg/mL (≈ 38.3 µM) | 2 µg/mL (≈ 1.2 µM) | 2 | 0.25 µg/mL (≈ 0.15 µM) | 2 | 2 | 1 µg/mL (≈ 0.598 µM) | 2 µg/mL (≈ 1.2 µM) | 2 | > 128 µg/mL | 128 µg/mL (≈ 76.6 µM)
CC(C)C[C@@H](N)C(=O)N[C@H]1C(=O)N[C@@H](CC(N)=O)C(=O)N[C@H]2C(=O)N[C@H]3C(=O)N[C@H](C(=O)N[C@H](C(=O)NCCNC(=O)[C@@H](N)CCCNC(=N)N)c4cc(O)cc(O)c4-c4cc3ccc4O)[C@H](O)c3ccc(c(Cl)c3)Oc3cc2cc(c3O[C@@H]2O[C@H](CO)[C@@H](O)[C@H](O)[C@H]2O[C@H]2C[C@](C)(N)[C@H](O)[C@H](C)O2)Oc2ccc(cc2Cl)[C@H]1O | – | – | – | 1 µg/mL (≈ 0.612 µM) | 32 µg/mL (≈ 19.6 µM) | – | 64 µg/mL (≈ 39.2 µM) | 16 µg/mL (≈ 9.79 µM) | – | 2 µg/mL (≈ 1.22 µM) | – | – | 64 µg/mL (≈ 39.2 µM) | 16 µg/mL (≈ 9.79 µM) | – | > 128 µg/mL | 128 µg/mL (≈ 78.4 µM)
